For 12 compounds, IC50 results are on record in PMC7175138, “Synthesis and Bioactivity of Thiazolethioacetamides as Potential Metallo-β-Lactamase Inhibitors” (Antibiotics, 2020).

Molecules are shown by their SMILES.

One experiment addresses ImiS (Aeromonas veronii, UniProt O31272). Kind of experiment: Enzyme inhibition assay, MβL ImiS, cefazolin as substrate. It counts as biochemical. Conditions: 25 °C, 30 min premix. As for the experimental part: (§1) To test the inhibitory activity of compounds 1–12 against MβLs, three representative MβLs, VIM-2 (B1), ImiS (B2), and L1 (B3), were chosen for evaluation.
(§2) The enzyme inhibition activity assay was carried out on an Agilent-8453 UV-visible spectrometer. […] Cefazolin (Sigma-Aldrich, Burlington, MO, USA), with a concentration of 20 to 140 μM, was taken as the substrate. The enzyme and inhibitor were premixed with the corresponding MβL and the thiazolethioacetamides for 30 min. The IC50 values were measured at 25 °C with the inhibitor concentrations of 0 and 1000 μM, and analyzed through IC50 calculation tool (AAT Bioquest Inc., sunnyvale, CA, USA).

In a further experiment the target is VIM-2 (Escherichia coli, UniProt Q5U7L7). Kind of experiment: Enzyme inhibition assay, MβL VIM-2, cefazolin as substrate. In kind it is biochemical. Conditions: 25 °C, 30 min premix. As for the experimental part:
as §1, §2

Sequence of ImiS (O31272 entry or part of it): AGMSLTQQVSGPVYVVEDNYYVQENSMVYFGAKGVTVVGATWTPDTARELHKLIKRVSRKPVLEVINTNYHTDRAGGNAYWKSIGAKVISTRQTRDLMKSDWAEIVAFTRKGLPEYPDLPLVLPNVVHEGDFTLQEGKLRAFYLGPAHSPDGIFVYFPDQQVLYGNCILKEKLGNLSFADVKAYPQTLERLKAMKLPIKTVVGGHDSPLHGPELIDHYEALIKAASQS

The compound `O=C(CSc1nnc(-c2ccccc2O)s1)Nc1ccc([N+](=O)[O-])cc1Cl` [Compound 7] had an IC50 against ImiS of 420 nM. This counts as sub-micromolar.
Still for that read-out and setting: under `O=C(CSc1nnc(-c2ccccc2O)s1)Nc1ccccc1F` [Compound 11] stands 680 nM; under `O=C(CSc1nnc(-c2ccccc2O)s1)Nc1cc(Cl)ccc1[N+](=O)[O-]` [Compound 6], 360 nM.
Turning to `O=C(CSc1nnc(-c2ccccc2O)s1)Nc1ccc(OC(F)(F)F)cc1` [Compound 8], the IC50 against VIM-2 is 2200 nM; on ImiS, 310 nM.
As to `O=C(CSc1nnc(-c2ccccc2O)s1)Nc1ccc(Cl)cc1[N+](=O)[O-]` [Compound 5], on ImiS, the IC50 came to 170 nM.
On to `O=C(CSc1nnc(-c2ccccc2O)s1)Nc1ccc(Cl)cc1` [Compound 1], for which the IC50 against ImiS came to 580 nM.
The same measure, in the same setting: next, `O=C(CSc1nnc(-c2ccccc2O)s1)Nc1ccc(F)cc1` [Compound 9]: 460 nM.
On the same count and under the same terms, next, `O=C(CSc1nnc(-c2ccccc2O)s1)Nc1cccc(F)c1` [Compound 10]: 610 nM; `O=C(CSc1nnc(-c2ccccc2O)s1)Nc1ccc(Cl)c(Cl)c1` [Compound 3]: 690 nM.
For the compound `O=C(CSc1nnc(-c2ccccc2O)s1)Nc1cccc(Cl)c1` [Compound 2], at ImiS, it took 530 nM to reach half-maximal inhibition (IC50).
Same read-out and setting: next, `O=C(CSc1nnc(-c2ccccc2O)s1)Nc1ccc(Cl)cc1Cl` [Compound 4]: 580 nM.
For the compound `O=C(CSc1nnc(-c2ccccc2O)s1)Nc1c(F)cccc1F` [Compound 12], the IC50 on VIM-2 was 19200 nM; against ImiS it was 700 nM.

The IC50 is the midpoint of a concentration-inhibition curve. Read a high IC50 as weaker potency.
